Biological target: Chloramphenicol Acetyl Transferase (CAT) (Escherichia coli, UniProt P62577)
Experiment: Acetylation by CAT with ¹⁴C acetyl coenzyme A, TLC and autoradiography
Format: biochemical
Conditions: analogue 2 mM stock 80 µl, CAT enzyme 3.75 units, ¹⁴C acetyl coenzyme A 0.1 µCi, 37°C for 90 minutes; no band in no enzyme control
Description: Biotinylated chloramphenicol analogue (compound 2) was dissolved to a concentration of 2 mmolar in 50% methanol. ¹⁴C acetyl coenzyme A (50 µCi/ml, […]) was obtained commercially.
In a microcentrifuge tube were mixed Tris/HCl (1M, pH 7.8) 7.5 µl, biotinylated chloramphenicol analogue (2 mM) 80 µl, CAT enzyme 3.75 units and ¹⁴C acetyl coenzyme A 2 µl (0.1 µCi). The mix was incubated at 37°C for 90 minutes. A control reaction which contained no enzyme was performed in parallel. 20 µl of each reaction was spotted on to a cellulose TLC plate which was developed in 95/5 chloroform methanol. The TLC plate was exposed to autoradiographic film.
The lane corresponding to the reaction to which enzyme was added contains a spot which migrated under the influence of the solvent. This band is acetylated, biotinylated chloramphenicol analogue. No corresponding band is visible in the no enzyme control.

Chain of Chloramphenicol Acetyl Transferase (CAT) (P62577 whole entry, looked up): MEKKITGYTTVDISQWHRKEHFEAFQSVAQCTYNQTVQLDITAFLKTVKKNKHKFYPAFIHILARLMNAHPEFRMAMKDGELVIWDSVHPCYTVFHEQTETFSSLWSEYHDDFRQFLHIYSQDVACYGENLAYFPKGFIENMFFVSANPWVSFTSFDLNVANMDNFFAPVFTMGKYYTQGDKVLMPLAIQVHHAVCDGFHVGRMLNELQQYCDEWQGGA

CC(=O)N[C@H](CO)[C@H](O)c1ccc(NC(=O)CCCCCNC(=O)CCCC[C@@H]2SC[C@@H]3NC(=O)N[C@@H]32)cc1 [Compound 2, 6-biotinylamino-N[4-(N-acetyl-1-(2-amino-1,3-propandiol))phenyl]hexamide]
substrate of CAT (acetylated product band on TLC): is a substrate of CAT

— patent publication EP0656422A1, “Cat assay” (priority 1993, dated 1995)
